# Measurements taken from ChEMBL document CHEMBL1201862, “PubChem BioAssay data set” (2004).
#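 Method: 48-hour compound exposure of cells in 96-well plates, five concentrations, linear interpolation of endpoints. GI50 = concentration required for 50% inhibition of growth.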 Activity calls are given as the source filed them. Rule as the data show it: active = GI50 up to about 1.1 µM and inactive = higher.
# Tests used:
# Experiment in all cases: NCI tumour cell line growth inhibition, 48 h
# DLD-1 = test system: DLD-1
# EKVX = test system: EKVX
# KM12 = test system: KM12
# A549 = test system: A549
# COLO 205 = test system: COLO 205
# RPMI-8226 = test system: RPMI-8226
# CCRF-CEM = test system: CCRF-CEM
# SNB-19 = test system: SNB-19
# NCI-H23 = test system: NCI-H23
# DMS-114 = test system: DMS-114
# HCT-116 = test system: HCT-116
# SF-268 = test system: SF-268
# UACC-257 = test system: UACC-257
# HCT-15 = test system: HCT-15
# SNB-78 = test system: SNB-78
# SNB-75 = test system: SNB-75
# UO-31 = test system: UO-31
# 786-0 = test system: 786-0
# HL-60 = test system: HL-60
# SW-620 = test system: SW-620
# RXF 631 = test system: RXF 631
# SK-MEL-28 = test system: SK-MEL-28
# A498 = test system: A498
# TK-10 = test system: TK-10
# OVCAR-3 = test system: OVCAR-3
# U-251 = test system: U-251
# HT-29 = test system: HT-29
# OVCAR-4 = test system: OVCAR-4
# RXF 393 = test system: RXF 393
# K562 = test system: K562
# Malme-3M = test system: Malme-3M
# IGROV-1 = test system: IGROV-1
# MOLT-4 = test system: MOLT-4
# LXFL 529 = test system: LXFL 529
# KM-20L2 = test system: KM-20L2
# DMS-273 = test system: DMS-273
# M19-MEL = test system: M19-MEL
# SF-539 = test system: SF-539
# HCC 2998 = test system: HCC 2998
# ACHN = test system: ACHN
# HOP-62 = test system: HOP-62
# NCI-H460 = test system: NCI-H460
# HOP-92 = test system: HOP-92
# SF-295 = test system: SF-295
# UACC-62 = test system: UACC-62
# M14 = test system: M14
# SN12C = test system: SN12C
# SK-OV-3 = test system: SK-OV-3
# SK-MEL-2 = test system: SK-MEL-2
# LOX IMVI = test system: LOX IMVI
# OVCAR-8 = test system: OVCAR-8
# SK-MEL-5 = test system: SK-MEL-5
# CAKI-1 = test system: CAKI-1
# NCI-H522 = test system: NCI-H522
# OVCAR-5 = test system: OVCAR-5
# XF498 = test system: XF498
# SR = test system: SR
# NCI-H226 = test system: NCI-H226
# HOP-18 = test system: HOP-18
compound,measurement,setting,value
OC1=CN=COc2ccccc21,GI50,DLD-1,> 100 µM (inactive)
same,GI50,EKVX,> 100 µM (inactive)
same,GI50,KM12,> 100 µM (inactive)
same,GI50,A549,> 100 µM (inactive)
same,GI50,COLO 205,> 100 µM (inactive)
same,GI50,RPMI-8226,> 100 µM (inactive)
same,GI50,CCRF-CEM,> 100 µM (inactive)
same,GI50,SNB-19,> 100 µM (inactive)
same,GI50,NCI-H23,> 100 µM (inactive)
same,GI50,DMS-114,> 100 µM (inactive)
same,GI50,HCT-116,> 100 µM (inactive)
same,GI50,SF-268,> 100 µM (inactive)
same,GI50,UACC-257,> 100 µM (inactive)
same,GI50,HCT-15,> 100 µM
same,GI50,SNB-78,> 100 µM (inactive)
same,GI50,SNB-75,32.3 µM (inactive)
same,GI50,UO-31,34.7 µM (inactive)
same,GI50,786-0,> 100 µM (inactive)
same,GI50,HL-60,> 100 µM (inactive)
same,GI50,SW-620,> 100 µM (inactive)
same,GI50,RXF 631,> 100 µM (inactive)
same,GI50,SK-MEL-28,> 100 µM (inactive)
same,GI50,A498,> 100 µM (inactive)
same,GI50,TK-10,> 100 µM (inactive)
same,GI50,OVCAR-3,> 100 µM (inactive)
same,GI50,U-251,> 100 µM (inactive)
same,GI50,HT-29,> 100 µM (inactive)
same,GI50,OVCAR-4,> 100 µM (inactive)
same,GI50,RXF 393,> 100 µM (inactive)
same,GI50,K562,> 100 µM (inactive)
same,GI50,Malme-3M,> 100 µM (inactive)
same,GI50,IGROV-1,> 100 µM (inactive)
same,GI50,MOLT-4,> 100 µM (inactive)
same,GI50,LXFL 529,> 100 µM (inactive)
same,GI50,KM-20L2,> 100 µM (inactive)
same,GI50,DMS-273,> 100 µM (inactive)
same,GI50,M19-MEL,> 100 µM (inactive)
same,GI50,SF-539,> 100 µM (inactive)
same,GI50,HCC 2998,> 100 µM (inactive)
same,GI50,ACHN,> 100 µM (inactive)
same,GI50,HOP-62,> 100 µM (inactive)
same,GI50,NCI-H460,> 100 µM (inactive)
same,GI50,HOP-92,> 100 µM (inactive)
same,GI50,SF-295,> 100 µM (inactive)
same,GI50,UACC-62,> 100 µM (inactive)
same,GI50,M14,> 100 µM (inactive)
same,GI50,SN12C,> 100 µM (inactive)
same,GI50,SK-OV-3,50.6 µM (inactive)
same,GI50,SK-MEL-2,> 100 µM (inactive)
same,GI50,LOX IMVI,> 100 µM (inactive)
same,GI50,OVCAR-8,> 100 µM (inactive)
CC1=C2C=CC(=O)C[C@@]2(C)CCC1,GI50,DLD-1,> 100 µM (inactive)
same,GI50,EKVX,> 100 µM (inactive)
same,GI50,KM12,> 100 µM (inactive)
same,GI50,A549,> 100 µM (inactive)
same,GI50,COLO 205,> 100 µM (inactive)
same,GI50,RPMI-8226,> 100 µM (inactive)
same,GI50,CCRF-CEM,> 100 µM (inactive)
same,GI50,SNB-19,> 100 µM (inactive)
same,GI50,NCI-H23,> 100 µM (inactive)
same,GI50,DMS-114,> 100 µM (inactive)
same,GI50,HCT-116,> 100 µM (inactive)
same,GI50,SK-MEL-5,> 100 µM (inactive)
same,GI50,SF-268,> 100 µM (inactive)
same,GI50,UACC-257,> 100 µM (inactive)
same,GI50,HCT-15,> 100 µM
same,GI50,SNB-78,> 100 µM (inactive)
same,GI50,SNB-75,69.2 µM (inactive)
same,GI50,UO-31,> 100 µM (inactive)
same,GI50,786-0,> 100 µM (inactive)
same,GI50,HL-60,> 100 µM (inactive)
same,GI50,SW-620,> 100 µM (inactive)
same,GI50,RXF 631,> 100 µM (inactive)
same,GI50,SK-MEL-28,> 100 µM (inactive)
same,GI50,A498,> 100 µM (inactive)
same,GI50,TK-10,> 100 µM (inactive)
same,GI50,OVCAR-3,> 100 µM (inactive)
same,GI50,U-251,> 100 µM (inactive)
same,GI50,HT-29,> 100 µM (inactive)
same,GI50,OVCAR-4,> 100 µM (inactive)
same,GI50,RXF 393,> 100 µM (inactive)
same,GI50,K562,> 100 µM (inactive)
same,GI50,Malme-3M,> 100 µM (inactive)
same,GI50,IGROV-1,> 100 µM (inactive)
same,GI50,MOLT-4,> 100 µM (inactive)
same,GI50,LXFL 529,> 100 µM (inactive)
same,GI50,DMS-273,> 100 µM (inactive)
same,GI50,CAKI-1,> 100 µM (inactive)
same,GI50,M19-MEL,> 100 µM (inactive)
same,GI50,NCI-H522,> 100 µM (inactive)
same,GI50,SF-539,> 100 µM (inactive)
same,GI50,OVCAR-5,> 100 µM (inactive)
same,GI50,HCC 2998,> 100 µM (inactive)
same,GI50,ACHN,> 100 µM (inactive)
same,GI50,HOP-62,> 100 µM (inactive)
same,GI50,NCI-H460,> 100 µM (inactive)
same,GI50,HOP-92,> 100 µM (inactive)
same,GI50,SF-295,> 100 µM (inactive)
same,GI50,UACC-62,> 100 µM (inactive)
same,GI50,M14,> 100 µM (inactive)
same,GI50,SN12C,> 100 µM (inactive)
same,GI50,SK-OV-3,> 100 µM (inactive)
same,GI50,SK-MEL-2,> 100 µM (inactive)
same,GI50,XF498,> 100 µM (inactive)
same,GI50,LOX IMVI,> 100 µM (inactive)
same,GI50,OVCAR-8,> 100 µM (inactive)
COc1cc([C@@H]2Oc3cc4oc(-c5ccccc5)cc(=O)c4c(O)c3O[C@H]2OC)ccc1O,GI50,DLD-1,7.69 µM (inactive)
same,GI50,COLO 205,20.5 µM (inactive)
same,GI50,RPMI-8226,5.71 µM (inactive)
same,GI50,CCRF-CEM,3.7 µM (inactive)
same,GI50,NCI-H23,10.8 µM (inactive)
same,GI50,HCT-116,7.16 µM (inactive)
same,GI50,SF-268,6.03 µM (inactive)
same,GI50,SNB-78,18.2 µM (inactive)
same,GI50,SNB-75,12.4 µM (inactive)
same,GI50,786-0,8.2 µM (inactive)
same,GI50,HL-60,2.85 µM (inactive)
same,GI50,RXF 631,17.8 µM (inactive)
same,GI50,SK-MEL-28,4.69 µM (inactive)
same,GI50,A498,14.3 µM (inactive)
same,GI50,OVCAR-4,14.6 µM (inactive)
same,GI50,K562,5.71 µM (inactive)
same,GI50,Malme-3M,14.3 µM (inactive)
same,GI50,IGROV-1,22.4 µM (inactive)
same,GI50,MOLT-4,4.91 µM (inactive)
same,GI50,LXFL 529,11.1 µM (inactive)
same,GI50,DMS-273,4.03 µM (inactive)
same,GI50,CAKI-1,19.4 µM (inactive)
same,GI50,M19-MEL,7.4 µM (inactive)
same,GI50,NCI-H522,5.97 µM (inactive)
same,GI50,SR,4.14 µM (inactive)
same,GI50,SF-539,15 µM (inactive)
same,GI50,HCC 2998,13.2 µM (inactive)
same,GI50,ACHN,11 µM (inactive)
same,GI50,HOP-62,13.2 µM (inactive)
same,GI50,NCI-H460,4.48 µM (inactive)
same,GI50,HOP-92,23.6 µM (inactive)
same,GI50,UACC-62,15 µM (inactive)
same,GI50,M14,11 µM (inactive)
same,GI50,SN12C,12.1 µM (inactive)
same,GI50,SK-OV-3,17.8 µM (inactive)
same,GI50,SK-MEL-2,14.8 µM (inactive)
same,GI50,NCI-H226,19.3 µM (inactive)
COC1=C(C(=O)OC(C)(C)C)[C@]2(C)C(C(=O)OC(C)(C)C)C(OC)=C(C(=O)OC(C)(C)C)[C@]2(C)C1C(=O)OC(C)(C)C (stereo not given in full),GI50,DLD-1,83.9 µM (inactive)
same,GI50,EKVX,> 100 µM (inactive)
same,GI50,KM12,79.1 µM (inactive)
same,GI50,A549,> 100 µM (inactive)
same,GI50,COLO 205,60.4 µM (inactive)
same,GI50,RPMI-8226,31.3 µM (inactive)
same,GI50,CCRF-CEM,73.8 µM (inactive)
same,GI50,SNB-19,> 100 µM (inactive)
same,GI50,HOP-18,> 100 µM (inactive)
same,GI50,NCI-H23,> 100 µM (inactive)
same,GI50,DMS-114,53.1 µM (inactive)
same,GI50,HCT-116,96.4 µM (inactive)
same,GI50,SK-MEL-5,35.1 µM (inactive)
same,GI50,SF-268,> 100 µM (inactive)
same,GI50,UACC-257,28.2 µM (inactive)
same,GI50,HCT-15,53 µM
same,GI50,SNB-78,> 100 µM (inactive)
same,GI50,SNB-75,> 100 µM (inactive)
same,GI50,UO-31,85.3 µM (inactive)
same,GI50,786-0,> 100 µM (inactive)
same,GI50,HL-60,24.9 µM (inactive)
same,GI50,SW-620,> 100 µM (inactive)
same,GI50,A498,> 100 µM (inactive)
same,GI50,TK-10,> 100 µM (inactive)
same,GI50,OVCAR-3,29.3 µM (inactive)
same,GI50,U-251,> 100 µM (inactive)
same,GI50,HT-29,63.2 µM (inactive)
same,GI50,OVCAR-4,97.7 µM (inactive)
same,GI50,RXF 393,> 100 µM (inactive)
same,GI50,K562,37.5 µM (inactive)
same,GI50,Malme-3M,> 100 µM (inactive)
same,GI50,IGROV-1,> 100 µM (inactive)
same,GI50,MOLT-4,33.9 µM (inactive)
same,GI50,LXFL 529,> 100 µM (inactive)
same,GI50,KM-20L2,> 100 µM (inactive)
same,GI50,DMS-273,97.7 µM (inactive)
same,GI50,CAKI-1,71.3 µM (inactive)
same,GI50,M19-MEL,> 100 µM (inactive)
same,GI50,NCI-H522,43.8 µM (inactive)
same,GI50,SR,33.6 µM (inactive)
same,GI50,SF-539,> 100 µM (inactive)
same,GI50,OVCAR-5,> 100 µM (inactive)
same,GI50,HCC 2998,> 100 µM (inactive)
same,GI50,ACHN,69.3 µM (inactive)
same,GI50,HOP-62,> 100 µM (inactive)
same,GI50,NCI-H460,78.2 µM (inactive)
same,GI50,HOP-92,32.9 µM (inactive)
same,GI50,SF-295,83.4 µM (inactive)
same,GI50,UACC-62,> 100 µM (inactive)
same,GI50,M14,46.9 µM (inactive)
same,GI50,SN12C,> 100 µM (inactive)
same,GI50,SK-OV-3,> 100 µM (inactive)
same,GI50,SK-MEL-2,> 100 µM (inactive)
same,GI50,NCI-H226,> 100 µM (inactive)
same,GI50,XF498,> 100 µM (inactive)
same,GI50,LOX IMVI,> 100 µM (inactive)
same,GI50,OVCAR-8,> 100 µM (inactive)
